Data taken from patent US8067454B2, “Thio-substituted Anthra [1, 2-d] imidazole- 6, 11-dione derivatives, preparation method and application thereof” (National Defense Medical Center, priority 2010, dated 2011).

Key:
[1] = system: SVG p12, GBM8401 and GBM8901; assay: MTT assay, normal cell versus tumor cells (categories 39-3 to 39-7); conditions: tumor cell survival rate less than 80%; for category 39-4: survival rate higher than 80% for normal cell SVG p12 and only inhibits growth of tumor cell GBM8401: FIG. 5B
[2] = system: telomerase (total cell lysates of lung cancer cell line H1299); assay: Telomeric Repeat Amplification Protocol (TRAP) assay, screen of telomerase inhibitors; assay type: biochemical, human; conditions: 10 μM
Experimental: Telomeric Repeat Amplification Protocol (TRAP) Assay:
Telomerase activity was detected by a modified version of the general TRAP protocol. Telomerase products were resolved by 10% polyacrylamide gel electrophoresis and visualized by staining with SYBER Green. As a source of telomerase, the total cell lysates derived from lung cancer cell line H1299 cells were used. Protein concentration of the lysates was assayed using Bio-Rad protein assay kit using BSA standards.
In the TRAP assay, if a compound can stabilize the G-quadruplex structure such that telomerase can not act on telomere, then the effect of inhibiting the telomerase can be achieved. In the FIG. 2A to FIG. 2C, DMSO treatment represents as the positive control group (P); while a negative control group (N) used 5 μl of 0.1 mg/ml RNase A (CLONTECH) in the assay. It could be observed that a number of telomeric fragments were detected in the positive control group (P), while none was detected in the negative control group (N). 10 μM was selected as the concentration used to screen compounds.

[3] = system: GBM8401; assay: MTT assay, GBM8401 tumor cell; conditions: concentration 10 μM, tumor cell
[4] = system: SVG p12; assay: MTT assay, SVG p12 normal cell; conditions: for Cell survival rate (%) SVG p12: concentration 10 μM, normal cell
[5] = system: GBM8901; assay: MTT assay, GBM8901 tumor cell; conditions: concentration 10 μM, tumor cell

| Compound | category 39-5: survival rate higher than 80% for normal cell SVG p12 and only inhibits growth of tumor cell GBM8901 ([1]; FIG. 5C) | inhibition effect against telomerase [2] | Cell survival rate (%) GBM8401 [3] [%] | category 39-3: survival rate higher than 80% for normal cell SVG p12 and inhibits growth of both tumor cells GBM8401 and GBM8901 ([1]; FIG. 5A) | Cell survival rate (%) SVG p12 [4] [%] | without cell toxicity for normal cell SVGP p12 ([4]; survival rate higher than 80%) | Cell survival rate (%) GBM8901 [5] [%] | category 39-4: survival rate higher than 80% for normal cell SVG p12 and only inhibits growth of tumor cell GBM8401 [1] |
| --- | --- | --- | --- | --- | --- | --- | --- | --- |
| O=C1c2ccccc2C(=O)c2c1ccc1nc(SCCCCCBr)[nH]c21 [f1-9, 2-(5-bromopentylthio)-1H-anthra[1,2-d]imidazole-6,11-dione] | in this category | exhibited inhibition effect against telomerase | 62 ± 19 |  |  |  |  |  |
| C=CCSc1nc2ccc3c(c2[nH]1)C(=O)c1ccccc1C3=O [f1-19, 2-(allylthio)-1H-anthra[1,2-d]imidazole-6,11-dione] |  | exhibited inhibition effect against telomerase | 42 ± 18 | in this category | 89 ± 5 | without cell toxicity for normal cell SVGP p12 | 50 ± 6 |  |
| O=C(Sc1nc2ccc3c(c2[nH]1)C(=O)c1ccccc1C3=O)c1ccccc1[N+](=O)[O-] [f2-1, S-6,11-dioxo-6,11-dihydro-1H-anthra[1,2-d]imidazol-2-yl 2-nitrobenzothioate] |  | exhibited inhibition effect against telomerase |  |  |  |  | 58 ± 3 | in this category |
| CN1CCN(C(=O)Sc2nc3ccc4c(c3[nH]2)C(=O)c2ccccc2C4=O)CC1 [f2-3, S-6,11-dioxo-6,11-dihydro-1H-anthra[1,2-d]imidazol-2-yl 4-methylpiperazine-1-carbothioate] |  | exhibited inhibition effect against telomerase | 62 ± 11 |  | 62 ± 3 |  | 38 ± 2 |  |
| Cc1cc(C(=O)Sc2nc3ccc4c(c3[nH]2)C(=O)c2ccccc2C4=O)c(C)o1 [f2-6, S-6,11-dioxo-6,11-dihydro-1H-anthra[1,2-d]imidazol-2-yl 2,5-dimethylfuran-3-carbothioate] |  | exhibited inhibition effect against telomerase |  |  |  |  | 38 ± 7 | in this category |
